Values of other authors, collected in patent publication US20210236583A1, “Targeting the renin-angiotensin system for treatment of environment-and pathogen-induced lung injury” (priority 2020, published 2021).

System: mice
Settings: direct injection of recombinant ACE2 protein

For “recombinant ACE2 protein: recombinant ACE2 protein injected directly, from the literature (Imai et al., 2005)”, the “protection from severe acute lung injury” value is listed as “protect mice from severe acute lung injury”.
